Results reported in patent US11207310B2 (PRILENIA NEUROTHERAPEUTICS LTD., priority 2016, dated 2021).
Where two headings read alike, the source gives them in different places.

What was measured:
patients with HD [1] = conditions: for TFC Domestic Chores, Δ to placebo: 52 weeks, Early Stage HD (TFC≥7)
Excerpt: The TFC scale of the UHDRS is a standardized scale used to assess 5 functional domains associated with disability shown below (occupation, finances, domestic chores (e.g. laundry, washing dishes), activities of daily living, and care level). The TFC score has a range of 0-13 and is a well-established endpoint for trials aiming disease progression. […] The TFC score is accepted by regulators and often considered the most widely accepted tool for disease procession in HD patients. Additionally, TFC is considered the gold standard for measuring HD rate of functional decline. […] The floor and ceiling effects make TFC scores more sensitive to change in early stage HD than in late stage HD.
Domestic Chores: 0=unable, 1=impaired, 2=normal.

patients with HD [2] = conditions: for PBA Irritability, Severity×Frequency, change from baseline, Δ to placebo: p value 0.0165
Protocol: The PBA-s is a brief semi-structured interview covering the most common behavioral and psychiatric manifestations of HD. […] Severity and frequency scores are multiplied to produce an overall ‘PBA score’ for each symptom.
The PBA-s is a brief semi-structured interview covering the most common behavioral and psychiatric manifestations of HD.
The total PBA score is calculated by the sum of all PBA-s scores across symptoms/domains.

[3] = 45 mg bid, Week 26, Stage 1 BL TFC 11-13
[4] = 67.5 mg bid, Week 26, Stage 1 BL TFC 11-13

In the case of CCCN1CCC(c2cccc(S(C)(=O)=O)c2)CC1 [pridopidine, 4-[3-(methylsulfonyl)phenyl]-1-propyl-piperidine], the “TFC Domestic Chores, Δ to placebo” value (patients with HD [1]; 45 mg bid) is reported as 0.24, the “Change from baseline in UHDRS TFC Domestic Chores, Δ to Placebo” value (patients with HD [1]; 45 mg bid, Week 26, ALL) is reported as −0.01 and the “Change from baseline in UHDRS TFC Domestic Chores, Δ to Placebo” value (patients with HD [1]; [3]) is reported as 0.34. The “Change from baseline in UHDRS TFC Domestic Chores, Δ to Placebo” value (patients with HD [1]; 45 mg bid, Week 52, ALL) was 0.23, the “Change from baseline in UHDRS TFC Domestic Chores, Δ to Placebo” value (patients with HD [1]; 45 mg bid, Week 52, Stage 1 BL TFC 11-13) was 0.49 and the “TFC Domestic Chores, Δ to placebo” value (patients with HD [1]; 67.5 mg bid) was 0.09. For the same molecule, the “Change from baseline in UHDRS TFC Domestic Chores, Δ to Placebo” value (patients with HD [1]; 67.5 mg bid, Week 26, ALL) was 0.02, the “Change from baseline in UHDRS TFC Domestic Chores, Δ to Placebo” value (patients with HD [1]; [4]) was 0.21 and the “Change from baseline in UHDRS TFC Domestic Chores, Δ to Placebo” value (patients with HD [1]; 67.5 mg bid, Week 52, ALL) was −0.03. For the same molecule, the “Change from baseline in UHDRS TFC Domestic Chores, Δ to Placebo” value (patients with HD [1]; 67.5 mg bid, Week 52, Stage 1 BL TFC 11-13) was 0.05, the “TFC Domestic Chores, Δ to placebo” value (patients with HD [1]; 90 mg bid) was 0.16 and the “Change from baseline in UHDRS TFC Domestic Chores, Δ to Placebo” value (patients with HD [1]; 90 mg bid, Week 26, ALL) was 0. For the same molecule, the “Change from baseline in UHDRS TFC Domestic Chores, Δ to Placebo” value (patients with HD [1]; 90 mg bid, Week 26, Stage 1 BL TFC 11-13) was 0.34, the “Change from baseline in UHDRS TFC Domestic Chores, Δ to Placebo” value (patients with HD [1]; 90 mg bid, Week 52, ALL) was 0.05 and the “Change from baseline in UHDRS TFC Domestic Chores, Δ to Placebo” value (patients with HD [1]; 90 mg bid, Week 52, Stage 1 BL TFC 11-13) was 0.1. For the same molecule, the “TFC Domestic Chores, Δ to placebo” value (patients with HD [1]; 112.5 mg bid) was 0.04, the “Change from baseline in UHDRS TFC Domestic Chores, Δ to Placebo” value (patients with HD [1]; 112.5 mg bid, Week 26, ALL) was 0.06 and the “Change from baseline in UHDRS TFC Domestic Chores, Δ to Placebo” value (patients with HD [1]; 112.5 mg bid, Week 26, Stage 1 BL TFC 11-13) was 0.47. For the same molecule, the “Change from baseline in UHDRS TFC Domestic Chores, Δ to Placebo” value (patients with HD [1]; 112.5 mg bid, Week 52, ALL) was 0.04, the “Change from baseline in UHDRS TFC Domestic Chores, Δ to Placebo” value (patients with HD [1]; 112.5 mg bid, Week 52, Stage 1 BL TFC 11-13) was 0.23 and the “Change from baseline in PBA Depressed Mood, Severity×Frequency, Δ to placebo” value (patients with HD [2]; 45 mg bid, Week 26, ALL) was −0.29. The “PBA Disoriented Behavior, Severity×Frequency, change from baseline, Δ to placebo” value (patients with HD [2]; 45 mg bid, Week 26, ALL, p value 0.2864) was −0.2, the “PBA Obsessive-Compulsive, Severity×Frequency, change from baseline, Δ to placebo” value (patients with HD [2]; 45 mg bid, Week 26, ALL, p value 0.8081) was 0.1 and the “Change from baseline in PBA Depressed Mood, Severity×Frequency, Δ to placebo” value (patients with HD [2]; [3]) was −0.63. For the same molecule, the “PBA Obsessive-Compulsive, Severity×Frequency, change from baseline, Δ to placebo” value (patients with HD [2]; 45 mg bid, Week 26, Stage 1 BL TFC 11-13, p value 0.0035) was −2.11, the “PBA Disoriented Behavior, Severity×Frequency, change from baseline, Δ to placebo” value (patients with HD [2]; 45 mg bid, Week 26, Stage 1 BL TFC 11-13, p value 0.0381) was −0.19 and the “Change from baseline PBA Irritability, Severity×Frequency, Δ to placebo” value (patients with HD [2]; 45 mg bid, Week 52, ALL) was −1.03. The “PBA Obsessive-Compulsive, Severity×Frequency, change from baseline, Δ to placebo” value (patients with HD [2]; 45 mg bid, Week 52, ALL, p value 0.5733) was −0.24, the “PBA Irritability, Severity×Frequency, change from baseline, Δ to placebo” value (patients with HD [2]; 45 mg bid, Week 52, BL TFC<7) was −2.42 and the “PBA Irritability, Severity×Frequency, change from baseline, Wk 52 Δ to placebo” value (patients with HD [2]; 45 mg bid, Week 52, BL TFC≥7, p value 0.1789) was −0.59. For the same molecule, the “PBA Obsessive-Compulsive, Severity×Frequency, change from baseline, Δ to placebo” value (patients with HD [2]; 45 mg bid, Week 52, Stage 1 BL TFC 11-13, p value 0.007) was −2.73, the “PBA Irritability, Severity×Frequency, change from baseline, Δ to placebo” value (patients with HD [2]; 45 mg bid, Week 52, Stage 3-5 BL TFC 0-6) was −2.42 and the “Change from baseline in PBA Depressed Mood, Severity×Frequency, Δ to placebo” value (patients with HD [2]; 67.5 mg bid, Week 26, ALL) was −0.65. The “PBA Disoriented Behavior, Severity×Frequency, change from baseline, Δ to placebo” value (patients with HD [2]; 67.5 mg bid, Week 26, ALL, p value 0.1357) was −0.28, the “PBA Obsessive-Compulsive, Severity×Frequency, change from baseline, Δ to placebo” value (patients with HD [2]; 67.5 mg bid, Week 26, ALL, p value 0.2512) was −0.45 and the “Change from baseline in PBA Depressed Mood, Severity×Frequency, Δ to placebo” value (patients with HD [2]; [4]) was −2.01. For the same molecule, the “PBA Obsessive-Compulsive, Severity×Frequency, change from baseline, Δ to placebo” value (patients with HD [2]; 67.5 mg bid, Week 26, Stage 1 BL TFC 11-13, p value 0.0035) was −2.03 and the “PBA Disoriented Behavior, Severity×Frequency, change from baseline, Δ to placebo” value (patients with HD [2]; 67.5 mg bid, Week 26, Stage 1 BL TFC 11-13, p value 0.0615) was −0.16.
